Experiment [1] has as its target T1, SCD5 (Homo sapiens, UniProt Q86SK9).
T1 construct: host or cells: S. cerevisiae ole1Δ strain (W303 pdr1Δ pdr3Δ background), plasmid pRS316 with TDH3 promoter and CYC1 terminator
T1 sequence (Q86SK9 1-330): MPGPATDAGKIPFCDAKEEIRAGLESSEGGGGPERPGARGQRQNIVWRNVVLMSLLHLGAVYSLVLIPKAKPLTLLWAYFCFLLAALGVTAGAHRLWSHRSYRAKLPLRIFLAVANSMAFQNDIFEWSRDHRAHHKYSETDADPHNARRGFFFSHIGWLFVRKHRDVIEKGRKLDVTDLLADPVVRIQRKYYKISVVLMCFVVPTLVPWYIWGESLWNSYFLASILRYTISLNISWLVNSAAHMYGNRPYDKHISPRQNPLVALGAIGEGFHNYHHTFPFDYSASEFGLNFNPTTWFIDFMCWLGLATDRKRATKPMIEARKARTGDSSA
In words: Growth inhibition of humanized yeast strain expressing SCD5 as sole desaturase. It is filed as cell-based. Summed up: (§1)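 ole1Δ yeast (W303 pdr1Δ pdr3Δ background) carrying plasmid-borne Ole1, SCD1 or SCD5, grown in uracil-free media; cultures pre-grown in raffinose, seeded at 2× density 0.02 in galactose media with compound. Growth read as OD600 after 24 h at 30° C. for Ole1, 40 h for SCD1/SCD5.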

For experiment [2], the target named is T2, SCD1 (Homo sapiens, UniProt O00767).
T2 construct: host or cells: S. cerevisiae ole1Δ strain (W303 pdr1Δ pdr3Δ background), plasmid pRS316 with TDH3 promoter and CYC1 terminator
T2 sequence (O00767 1-359): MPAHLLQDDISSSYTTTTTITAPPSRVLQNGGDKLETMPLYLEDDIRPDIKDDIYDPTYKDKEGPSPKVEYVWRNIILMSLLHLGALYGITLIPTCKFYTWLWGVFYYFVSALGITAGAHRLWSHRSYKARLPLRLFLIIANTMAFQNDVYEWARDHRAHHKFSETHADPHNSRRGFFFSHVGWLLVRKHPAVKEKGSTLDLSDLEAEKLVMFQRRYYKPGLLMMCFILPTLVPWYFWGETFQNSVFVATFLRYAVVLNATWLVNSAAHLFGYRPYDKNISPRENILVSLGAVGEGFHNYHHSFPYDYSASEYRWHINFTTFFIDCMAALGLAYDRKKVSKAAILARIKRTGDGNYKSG
In words: Growth inhibition of humanized yeast strain expressing SCD1 as sole desaturase. It is filed as cell-based. Summed up: as §1

Where [3] appears, read: growth inhibition of humanized yeast strain expressing human SCD5.
[4] abbreviates: growth inhibition of humanized yeast strain expressing human SCD1.
Setting [5] is: humanized yeast strain expressing SCD5.
The mark [6] stands for this setting: humanized yeast strain expressing SCD1.

SMILES strings stand for the structures. pIC50: −log10 of the molar value.

The pIC50 is −log10 of the IC50, conventionally taken in molar units. A high value points to a low IC50. As for `COC1(C(=O)N2CCC(c3nc(-c4ccc5cnn(C(C)C)c5c4)no3)CC2)CC1` [Compound 797], the pIC50 in experiment [1] (humanized yeast strain, 40 h) is 6.88; in experiment [2] (humanized yeast strain, 40 h), under 4.35.

For the compound `COC(=O)N1CCC(c2cc(-c3cc4c(cn3)cnn4C3COC3)on2)CC1` [Compound 1111], the pIC50 in experiment [1] (humanized yeast strain, 40 h) is 6.75; in experiment [2] (humanized yeast strain, 40 h), under 4.35.

Regarding `C=C(C)c1nccn2cc(-c3nc(C4CCN(C(=O)OC(C)(C)C)CC4)no3)cc12` [Compound 888], the pIC50 in experiment [1] (humanized yeast strain, 40 h) was 8.00; in experiment [2] (humanized yeast strain, 40 h), under 4.35.

On to `CC(C)(C)OC(=O)N1CCC(c2noc(-c3ccc4cnn(C5CS(=O)(=O)C5)c4c3)n2)CC1` [Compound 990], for which the negative logarithm of the IC50 (pIC50) in experiment [1] (humanized yeast strain, 40 h) is 8.00; in experiment [2] (humanized yeast strain, 40 h) it was under 4.35.

Regarding `COC(=O)N1CCC(c2noc(-c3ccc(N4CCOCC4)cc3)n2)CC1` [Compound 1163], the pIC50 in experiment [1] (humanized yeast strain, 40 h) is under 4.35; in experiment [2] (humanized yeast strain, 40 h) it was under 4.35.

Take `CC(C)C(=O)N1CCC(c2noc(-c3ccccc3N3CCOCC3)n2)CC1` [Compound 1167]: the pIC50 was under 4.35 in experiment [1] (humanized yeast strain, 40 h) and under 4.35 in experiment [2] (humanized yeast strain, 40 h).

In the case of `CC(C)(C)OC(=O)N1CCC(c2noc(-c3ccn(C4COC4)c(=O)c3)n2)CC1` [Compound 1121], the negative-log IC50 (pIC50) in experiment [1] (humanized yeast strain, 40 h) was 4.81; in experiment [2] (humanized yeast strain, 40 h) it was under 4.35.

As for `COC(=O)N1CCC(c2nc(-c3ccc4c(c3)N(C(C)C)C(=O)C4)no2)CC1` [Compound 627], the pIC50 in experiment [1] (setting [3]) was 5.17; in experiment [2] (setting [4]), under 4.35.

Turning to `CC(C)C(=O)N1CCC(c2noc(-c3ccc4cnn(C5COC5)c4c3)n2)CC1` [Compound 927], the negative logarithm of the IC50 (pIC50) was 6.85 in experiment [1] (humanized yeast strain, 40 h) and under 4.35 in experiment [2] (humanized yeast strain, 40 h).

As to `CCC(=O)N1CCC(c2noc(-c3ccccc3N3CCOCC3)n2)CC1` [Compound 1168], the pIC50 in experiment [1] (humanized yeast strain, 40 h) was under 4.35; in experiment [2] (humanized yeast strain, 40 h), under 4.35.

In the case of `CC(C)(C)OC(=O)N1CCC(c2cc(-c3cnc4cnn(C5CCOC5)c4c3)on2)CC1` (centres unmarked) [Compound 1233], the negative logarithm of the IC50 (pIC50) in experiment [1] (yeast strain expressing human SCD5 as sole desaturase, Table 8) is 5.18; in experiment [2] (yeast strain expressing human SCD1 as sole desaturase, Table 8) it was 4.61.

For the compound `CC(C)n1ncc2ccc(-c3noc(C4CCN(C(=O)COc5ccccc5)CC4)n3)cc21` [Compound 358], in experiment [1] (setting [5]), the pIC50 was under 4.35 and the “SCD5 % Max Inhibition” value is on record as 4.53%. In addition, the “SCD1 % Max Inhibition” value in experiment [2] (setting [6]) stood at 59.61%.

As to `CC(C)(C)OC(=O)N1CCC(c2noc(-c3ccc4oc(=O)n(C5COC5)c4c3)n2)CC1` [Compound 1005], the pIC50 in experiment [1] (humanized yeast strain, 40 h) was 8.00; in experiment [2] (humanized yeast strain, 40 h), under 4.35.

On to `CC(C)C(=O)N1CCC(c2nc(-c3ccnc(F)c3)no2)CC1` [Compound 1124], for which the pIC50 in experiment [1] (humanized yeast strain, 40 h) is under 4.35; in experiment [2] (humanized yeast strain, 40 h), under 4.35.

For `CCC(=O)N1CCC(c2noc(-c3cc(F)c4cnn(C5COC5)c4c3)n2)CC1` [Compound 1072], the negative logarithm of the IC50 (pIC50) in experiment [1] (humanized yeast strain, 40 h) was 7.68; in experiment [2] (humanized yeast strain, 40 h), under 4.35.

With `CC(C)n1ncc2ccc(-c3noc(C4CCN(C(=O)CNC(=O)C5CC5)CC4(F)F)n3)cc21` (centres unmarked) [Compound 579], the negative logarithm of the IC50 (pIC50) in experiment [1] (setting [5]) and in experiment [2] (setting [6]) was under 4.35 in each case.

Turning to `O=C(c1ccccc1Cl)N1CCN(c2noc(-c3ccc4cnn(C5COC5)c4c3)n2)CC1` [Compound 726], the negative logarithm of the IC50 (pIC50) in experiment [1] (setting [3]) is 8.00; in experiment [2] (setting [4]), 5.25.

Turning to `CC(C)(C)OC(=O)N1CCN(c2noc(-c3ccc4cnn(C5CNC5)c4c3)n2)CC1` [Compound 932], the pIC50 in experiment [1] (humanized yeast strain, 40 h) is 8.00; in experiment [2] (humanized yeast strain, 40 h), under 4.35.

With `CC1(OC(=O)N2CCC(c3noc(-c4ccnc(N5CCC(F)(F)C5)c4)n3)CC2)CC1` [Compound 1171], the pIC50 in experiment [1] (humanized yeast strain, 40 h) is 7.51; in experiment [2] (humanized yeast strain, 40 h), 5.94.

On to `C[C@H]1C[C@H](c2noc(-c3ccc4cnn(C5COC5)c4c3)n2)CCN1C(=O)C1CCC1` [Compound 1056], for which the pIC50 in experiment [1] (humanized yeast strain, 40 h) was 8.33; in experiment [2] (humanized yeast strain, 40 h) it was under 4.35.

With `O=C1CC(n2ncc3ccc(-c4nc(N5CCn6c(Cl)cnc6C5)no4)cc32)C1` [Compound 953], the negative logarithm of the IC50 (pIC50) is 8.00 in experiment [1] (humanized yeast strain, 40 h) and under 4.35 in experiment [2] (humanized yeast strain, 40 h).

On to `CC(=O)N1CC(n2ncc3ccc(-c4nc(N5CCN(C(=O)OC(C)(C)C)CC5)no4)cc32)C1` [Compound 915], for which the pIC50 was 4.99 in experiment [1] (humanized yeast strain, 40 h) and under 4.35 in experiment [2] (humanized yeast strain, 40 h).

Consider `CC(C)n1ncc2ccc(-c3noc(N4CCC(CO)CC4)n3)cc21` [Compound 637], for which the pIC50 in experiment [1] (setting [3]) and in experiment [2] (setting [4]) was under 4.35 in each case.
